Tests used:
MIAPaCa2 = assay: Cell viability assay (CellTiter Glo), MIAPaCa2; format: cell-based; conditions: Homo sapiens, MIA PaCa-2, 72 h incubation, mean of independent triplicate experiments, read-out: In vitro anti-proliferative activity IC50, MIAPaCa2
Description: The antiproliferative activity of compound I as well as its newly synthesised analogues (5a–i) was evaluated in vitro against the three human breast cancer cell lines MDA-MB-231 (TNBC), T47D (ER^+, HER^−), and BT474 (ER^+, HER^+) as well as a human pancreatic cancer cell line MIAPaCa2. The seeding of the corresponding cell lines started one day before incubation, which lasted for 72 h with the different concentrations of the tested compounds. CellTiter Glo reagent (25 μL) was added to the cell plate. The luminescence was analysed after 10 min using a PerkinElmer Envision instrument. The test compounds were used at ten different triplicate concentrations in half log increments up to 100 μM.

MDA-MB-231 = assay: Preliminary in vitro profiling of virtual hits; format: cell-based, human
Text: Approximately 210,000 small molecules from the SPECS virtual library of compounds were imported, rendered, and minimised using a MMFF94x force field and run in a virtual screening simulations programme using Glide SP within Maestro software (Glide, version 9.5, Schrödinger; http://www.schrodinger.com). These compounds underwent four stages of filtration including prefiltration of the non-drug-like compounds in accordance with Lipinski’s rules and excluding chemically unstable and potentially toxic groups. This was followed by high throughput virtual screening (HTVS), standard precision virtual screening (SPVS) and extra precision virtual screening (XPVS). Each compound was positioned in the chosen pocket, which was made up of the area surrounding the three amino acids Asp 1036, Ser 910, and Lys 1032 within a 12 A° radius and scored for electrostatic and van der Waals interactions as implemented in the Schrodinger virtual screening package (version 9.5). […] These 25 hits underwent preliminary in vitro profiling in the metastatic triple negative breast cancer (TNBC) cell line (MDA-MB-231) for antiproliferative and antimigratory properties.

MDA-MB-231 cells = assay: Boyden chamber migration; format: cell-based, human; conditions: 18 h Boyden chamber
Description: Migration was assessed utilising 24-well, transmembrane permeable support plates (Corning Lifesciences, Corning, New York, NY, USA) with 6.5 mm microporous membrane (8 μm pore size) inserts, each coated with 10 μg/mL fibronectin in sterile PBS. Inserts were placed into wells containing RPMI + 5% FCS (± treatments), before cells in serum-free RPMI were seeded into the top portion of each insert at a density of 50,000 cells/mL. Cells were then incubated at 37 °C and 5% CO2 for 18 h. After this migratory period was completed, cells were fixed to the underside of the inserts in 3.7% PFA in PBS and stained with 0.5% crystal violet solution. Resulting inserts were then imaged using a standard light microscope.

CC(C)(C)c1ccc(C(CN)c2ccc(Cl)cc2)cc1 (stereo not drawn) [Compound I]
IC50 (MIAPaCa2): 5.66 µM | Antiproliferative and antimigratory properties (preliminary profiling) (MDA-MB-231): low micromolar antiproliferative and antimigratory properties exceeding those of chloropyramine (C4) | Serum-stimulated migration (MDA-MB-231 cells): significant reduction in serum-stimulated migration

— paper PMC7435868, “Structure-Based Virtual Screening, Synthesis and Biological Evaluation of Potential FAK-FAT Domain Inhibitors for Treatment of Metastatic Cancer” (Molecules, 2020)
